Data set [1] deals with T1, human histamine H3 receptor (Homo sapiens, UniProt Q9Y5N1).
T1 construct: expressed in transfected cells; membranes prepared
The data set can be described thus: [3H]-N-methylhistamine binding to membranes of H3 receptor-expressing SK-N-MC cells. Particulars: 0.8 nM [3H]-N-methylhistamine, 45 minutes at 25° C., SK-N-MC cell membranes; KI from IC50 with KD 800 pM. As for the experimental part: In the present invention receptor binding was determined using the human histamine H3 receptor (See Lovenberg et al Mol. Pharmacol. 1999, 1107). Screening using the human receptor is particularly important for the identification of new therapies for the treatment of human disease. Conventional binding assays for example are determined using rat synaptosomes (Garbarg et al J. Pharmacol. Exp. Ther. 1992, 263, 304), rat cortical membranes (West et al Mol. Pharmacol. 1990, 610), and guinea pig brain (Korte et al Biochem. Biophys. Res. Commun. 1990, 978). Only limited studies have been performed previously using human tissue but these allude to significant differences in the pharmacology of rodent and primate receptors (West et al Eur. J. Pharmacol. 1999, 233).
A 10 cm tissue culture dish with a confluent monolayer of SK-N-MC cells was split two days prior to transfection. Using sterile technique the media was removed and the cells were detached from the dish by the addition of trypsin. One fifth of the cells were then placed onto a new 10 cm dish. Cells were grown in a 37° C. incubator with 5% CO2 in Minimal Essential Media Eagle with 10% Fetal Bovine Serum. After two days cells were approximately 80% confluent. These were removed from the dish with trypsin and pelleted in a clinical centrifuge. The pellet was then re-suspended in 400 μL complete media and transferred to an electroporation cuvette with a 0.4 cm gap between the electrodes (Bio-Rad #165-2088). One microgram supercoiled H3 receptor CDNA was added to the cells and mixed. The voltage for the electroporation was set at 0.25 kV, the capacitance is set at 960 μF.
After electroporation the cells were diluted into 10 mL complete media and plated onto four 10 cm dishes. Due to the variability in the efficiency of electroporation, four different concentrations of cells were plated. The ratios used were: 1:20, 1:10, and 1:5, with the remainder of the cells being added to the fourth dish. The cells were allowed to recover for 24 hours before adding the selection media (complete media with 600 μg/ml G418). After 10 days dishes were analyzed for surviving colonies of cells. Dishes with well-isolated colonies were used. Cells from individual colonies were isolated and tested. SK-N-MC cells were used because they give efficient coupling for inhibition of adenylate cyclase. The clones that gave the most robust inhibition of adenylate cyclase in response to histamine were used for further study.
Cell pellets from histamine H3 receptor-expressing SK-N-MC cells were homogenized in 20 mM TrisHCl/0.5 mM EDTA. Supernatants from a 800 g spin were collected, reccentrifuged at 30,000 g for 30 minutes. Pellets were rehomogenized in 50 mM Tris/5 mM EDTA (pH 7.4). Membranes were incubated with 0.8 nM [^3H]-N-methylhistamine plus/minus test compounds for 45 minutes at 25° C. and harvested by rapid filtration over GF/C glass fiber filters (pretreated with 0.3% polyethylenimine) followed by four washes with ice cold buffer. Filters were dried, added to 4 mL scintillation cocktail and then counted on a liquid scintillation counter. Non-specific binding was defined with 10 μM histamine according to Chen and Prusoff, Biochem. Pharmacol. 1973, 22:3099. KI values were calculated based on a KD of 800 pM and a ligand concentration ([L]) of 800 pM according to the formula: […]
KI values are provided in the examples above.

The values below come from patent US6436939B2, “Method for using 2-aryloxyalkylaminobenzoxazoles and 2-aryloxyalkylaminobenzothiazoles as H3 antagonists” (Ortho-McNeil Pharmaceutical, Inc., priority 2000, dated 2002).

Where a name gives a salt, the structure may show the parent alone.

T1 sequence (Q9Y5N1 whole entry): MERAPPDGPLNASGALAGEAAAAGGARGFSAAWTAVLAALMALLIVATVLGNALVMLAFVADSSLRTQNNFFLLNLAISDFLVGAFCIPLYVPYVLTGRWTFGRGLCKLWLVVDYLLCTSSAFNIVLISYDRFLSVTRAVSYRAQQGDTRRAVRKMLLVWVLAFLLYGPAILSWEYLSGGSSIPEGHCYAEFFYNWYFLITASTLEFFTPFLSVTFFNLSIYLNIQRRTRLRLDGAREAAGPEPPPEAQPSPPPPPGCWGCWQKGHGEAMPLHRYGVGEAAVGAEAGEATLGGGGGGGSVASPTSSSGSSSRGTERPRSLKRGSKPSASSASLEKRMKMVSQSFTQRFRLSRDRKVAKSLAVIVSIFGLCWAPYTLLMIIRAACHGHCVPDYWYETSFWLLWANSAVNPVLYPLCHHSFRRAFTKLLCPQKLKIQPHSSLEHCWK

Regarding `CCN(CC)CCCOc1ccc(/C=C/c2nc3ccccc3o2)cc1` (as salt: HCl) [Example 8, (E)-2-[2-(4-Diethylaminopropoxyphenyl)ethenyl]benzoxazole], the melting point lay within 225 to 226 °C. The compound `C(=C\c1nc2ccccc2s1)/c1ccc(OCCCN2CCCCC2)cc1` (as salt: HCl) [Example 3, (E)-2-[2-(4-Piperidinopropoxyphenyl)ethenyl]benzothiazole] had a melting point of 215 to 217 °C. In the case of `CCN(CC)CCCOc1ccc(/C=C/c2nc3ccccc3o2)cc1` [Example 8, (E)-2-[2-(4-Diethylaminopropoxyphenyl)ethenyl]benzoxazole], the Ki in data set [1] worked out at 31 nM. `C(=C\c1nc2ccccc2o1)/c1ccc(OCCCN2CCCCC2)cc1` [Example 4, (E)-2-[2-[4-(3-Piperidinopropoxy)phenyl]ethenyl]benzoxazole] registered an inhibitory constant (Ki) in data set [1] of 13 nM. Consider `C(=C\c1nc2ccccc2o1)/c1ccc(OCCCCN2CCCCC2)cc1` (as salt: HCl) [Example 6, (E)-2-[2-(4-Piperidinobutoxyphenyl)ethenyl]benzoxazole], for which the melting point fell in the range of 230 to 232 °C. In turn, `CCCN(CCC)CCCCOc1c(C)cc(/C=C/c2nc3ccccc3s2)cc1C` [Example 12, (E)-2-[2-(3,5-Dimethyl-4-dipropylaminobutoxyphenyl)ethenyl]benzothiazole] showed a Ki in data set [1] of 1000 nM.

The compound `C(=C\c1nc2ccccc2o1)/c1ccc(OCCCN2CCCCC2)cc1` (as salt: HCl) [Example 4, (E)-2-[2-[4-(3-Piperidinopropoxy)phenyl]ethenyl]benzoxazole] had a melting point of 127 to 128 °C. In turn, `CCCN(CCC)CCCOc1ccc(-c2nc3ccccc3s2)cc1` [Example 11, 2-(4-Dipropylaminopropoxyphenyl)benzothiazole] yielded a Ki in data set [1] of 173 nM. This lies in the sub-micromolar range.

For `CCN(CC)CCCCOc1ccc(/C=C/c2nc3ccccc3o2)cc1` (as salt: HCl) [Example 7, (E)-2-[2-(4-Diethylaminobutoxyphenyl)ethenyl]benzoxazole], the melting point lay within 219 to 220 °C. `CCN(CC)CCCCOc1ccc(/C=C/c2nc3ccccc3o2)cc1` [Example 7, (E)-2-[2-(4-Diethylaminobutoxyphenyl)ethenyl]benzoxazole]: the Ki in data set [1] turned out to be 48 nM. In turn, `CCCN(CCC)CCCOc1ccc(-c2nc3ccccc3s2)cc1` (as salt: HCl) [Example 11, 2-(4-Dipropylaminopropoxyphenyl)benzothiazole] displayed a melting point of 142 to 143 °C. `C(=C\c1nc2ccccc2o1)/c1ccc(OCCCCN2CCCC2)cc1` [Example 9, (E)-2-[2-(4-Pyrrolinobutoxyphenyl)ethenyl]benzoxazole] yielded a Ki in data set [1] of 17 nM.

With `C(=C\c1nc2ccccc2s1)/c1ccc(OCCCN2CCCCC2)cc1` [Example 3, (E)-2-[2-(4-Piperidinopropoxyphenyl)ethenyl]benzothiazole], the affinity in data set [1], expressed as Ki, was 15 nM. The Ki values of the last two compounds are within 1.5-fold of each other. Turning to `C(=C\c1nc2ccccc2o1)/c1ccc(OCCCCN2CCCC2)cc1` (as salt: HCl) [Example 9, (E)-2-[2-(4-Pyrrolinobutoxyphenyl)ethenyl]benzoxazole], the melting point fell in the range of 229 to 232 °C.

Take `C(=C\c1nc2ccccc2o1)/c1ccc(OCCCCN2CCCCC2)cc1` [Example 6, (E)-2-[2-(4-Piperidinobutoxyphenyl)ethenyl]benzoxazole]: the affinity in data set [1], expressed as Ki, was 34 nM.

One may read the melting point as the temperature of the solid-liquid transition. As a reminder, the Ki is a dissociation constant, usually derived from enzyme kinetics or from competition with a known ligand. Higher therefore signals a looser hold on the target.
